“And” between values parts separate entries of the source, which are not always exact repeats. Equal entries are not always repeated.
Key:
CCl4-exposed mice = assay: Carbon tetrachloride (CCl4)-induced liver fibrosis in mice; format: in vivo, mouse; conditions: vs vehicle
Description: Mice were allowed to habituate for at least 5 days prior to experimentation.
Sunflower oil (twice a week for 3 weeks, ip)/vehicle (once a day for 22 days po), n=7, • 2. […] CCl4 (3.5 mL/kg, twice a week for 3 weeks, ip)/vehicle (once a day for 22 days po), n=8 • 5.
Two days a week for 3 weeks, mice were intraperitoneally administered in the morning with either 100 μL of CCl4 (3.5 mL kg in sunflower oil (v/v, 1/11)) or 100 μL of sunflower oil.
Measured Parameters Collagen
mRNA extraction was performed on small frozen liver samples (50-100 mg).

mouse PPARγ = mouse PPARγ (Mus musculus, UniProt P37238); assay: cell-based
mouse PPARα = target: T1, mouse PPARα (Mus musculus, UniProt P23204); assay: Transient transactivation assay, Cos-7 cells, chimeric PPARα-Gal4, luciferase reporter; format: cell-based; conditions: Gal4 chimera, mean of 6 experiments
T1 sequence (P23204 200-468 limits assumed): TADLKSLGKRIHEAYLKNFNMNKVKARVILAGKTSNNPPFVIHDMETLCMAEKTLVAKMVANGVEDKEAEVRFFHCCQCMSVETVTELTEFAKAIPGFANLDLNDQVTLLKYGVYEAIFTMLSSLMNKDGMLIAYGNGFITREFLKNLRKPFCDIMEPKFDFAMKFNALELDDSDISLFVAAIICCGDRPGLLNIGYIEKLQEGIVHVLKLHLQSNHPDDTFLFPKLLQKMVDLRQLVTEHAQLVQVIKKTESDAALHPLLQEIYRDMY
Description: (§1) Transfections were performed by a chemical agent (Jet PEI).

human PPARα = target: T2, human PPARα (Homo sapiens, UniProt Q07869); assay: as above; format: cell-based; conditions: Gal4 chimera, mean of 6 experiments
T2 sequence (Q07869 200-468 limits assumed): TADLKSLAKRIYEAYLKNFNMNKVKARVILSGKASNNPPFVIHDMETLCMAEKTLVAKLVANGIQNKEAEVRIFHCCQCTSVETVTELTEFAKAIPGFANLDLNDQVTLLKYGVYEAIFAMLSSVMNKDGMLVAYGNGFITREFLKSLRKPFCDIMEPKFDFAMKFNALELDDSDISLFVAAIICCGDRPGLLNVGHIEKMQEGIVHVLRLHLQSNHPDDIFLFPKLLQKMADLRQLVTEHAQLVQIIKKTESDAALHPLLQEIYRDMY
Description: as §1

anti-GBM exposed mice = assay: Anti-GBM induced glomerulonephritis in mice; format: in vivo, mouse; conditions: vs vehicle
[1] = test system: primary human lung fibroblasts; assay: PDGF-induced proliferation, EdU incorporation assay; format: cell-based; conditions: Fibroblast, 24 h, NC: not converged
Description: (§2) The ability of compound A to inhibit PDGF-induced lung and dermal fibroblasts proliferation was determined by performing EdU (5-ethynyl-2′-deoxyuridine) incorporation assays. These assays were carried out using primary human lung or skin fibroblasts (Promocell). The cells were plated in 96-well plates in full growth medium for 24 h, followed by 24 h starvation in serum-free medium. The medium was then replaced by fresh medium containing PDGF and compound A to be tested (at concentrations ranging from 10^−4 M to 4.5 10^−8 M) for another 24 h. EdU was added to the cells for the last 16 h of the compound treatment. The culture medium was then removed, the cells were fixed with formaldehyde and the EdU incorporated in the DNA of diving cells was quantified using fluorescent Click-it assay according to the manufacturer's instructions (Invitrogen). […] Results were expressed as % of EdU-positive cells out of the total cell number. The results present the mean of biological triplicates. Dose-effect curves and IC50 values were calculated using the GraphPad Prism software.

[2] = test system: primary human dermal fibroblasts; assay: as above; format: cell-based; conditions: Fibroblast, 24 h, NC: not converged
Description: as §2

human PPARδ = target: T3, human PPARδ (Homo sapiens, UniProt Q03181); assay: Transient transactivation assay, Cos-7 cells, chimeric PPARδ-Gal4, luciferase reporter; format: cell-based; conditions: Gal4 chimera, mean of 6 experiments
T3 sequence (Q03181 211-441 limits assumed): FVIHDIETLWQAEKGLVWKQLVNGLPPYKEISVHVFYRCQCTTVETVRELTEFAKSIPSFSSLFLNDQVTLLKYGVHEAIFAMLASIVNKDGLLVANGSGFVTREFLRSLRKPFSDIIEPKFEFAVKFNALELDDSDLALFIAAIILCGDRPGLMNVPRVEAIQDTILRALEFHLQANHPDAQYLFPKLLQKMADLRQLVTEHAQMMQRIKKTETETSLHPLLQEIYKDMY
Description: as §1

mouse PPARδ = target: T4, mouse PPARδ (Mus musculus, UniProt P35396); assay: as above; format: cell-based; conditions: Gal4 chimera, mean of 5 experiments, estimated (plateau not reached)
T4 sequence (P35396 210-440 limits assumed): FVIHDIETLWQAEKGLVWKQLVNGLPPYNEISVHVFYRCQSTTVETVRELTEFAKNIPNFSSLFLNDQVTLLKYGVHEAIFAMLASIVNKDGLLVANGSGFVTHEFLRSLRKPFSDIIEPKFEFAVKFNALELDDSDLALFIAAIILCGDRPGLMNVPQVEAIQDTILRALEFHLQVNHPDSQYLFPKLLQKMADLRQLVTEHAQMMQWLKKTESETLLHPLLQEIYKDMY
Description: as §1

mouse PPARγ, sequence (P37238 238-505 limits assumed): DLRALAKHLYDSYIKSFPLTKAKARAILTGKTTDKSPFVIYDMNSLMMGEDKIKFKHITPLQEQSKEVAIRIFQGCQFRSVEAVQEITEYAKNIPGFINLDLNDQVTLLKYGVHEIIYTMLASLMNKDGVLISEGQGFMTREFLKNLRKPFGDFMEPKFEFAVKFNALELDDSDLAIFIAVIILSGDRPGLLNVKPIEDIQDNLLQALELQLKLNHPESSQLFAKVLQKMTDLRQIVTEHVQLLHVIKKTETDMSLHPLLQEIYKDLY

Question: How did the “Col1a expression (liver)” value (CCl4-exposed mice; 30 mg/kg/day po 22 days) turn out when `O=C(O)CCCc1cc2cc(Cl)ccc2n1S(=O)(=O)c1ccc2ncsc2c1` [compound A, 5-Chloro-1-[(6-benzothiazolyl)sulfonyl]-1H-indole-2-butanoic acid] was run?
Answer: significantly inhibited the expression of Col1a

Question: What about the “TGFβ-1 expression (liver)” value (CCl4-exposed mice; 30 mg/kg/day po 22 days) of the same compound?
Answer: significantly inhibited the expression of TGFβ-1

Question: And the “decrease of collagen levels (hepatic fibrosis)” value (CCl4-exposed mice; 30 mg/kg/day po 22 days)?
Answer: 80%

Question: What about the “fibronectin expression (liver)” value (CCl4-exposed mice; 30 mg/kg/day po 22 days) of the same compound?
Answer: significantly inhibited the expression of fibronectin

Question: And the plasma triglycerides (CCl4-exposed mice; 30 mg/kg/day po 22 days)?
Answer: significantly reduced plasma triglycerides

Question: And the “Col1a expression (liver)” value (CCl4-exposed mice; 100 mg/kg/day po 22 days)?
Answer: significantly inhibited the expression of Col1a

Question: What about the “MCP-1 expression (liver)” value (CCl4-exposed mice; 100 mg/kg/day po 22 days) of the same compound?
Answer: significantly inhibited the expression of MCP-1

Question: What about the “TGFβ-1 expression (liver)” value (CCl4-exposed mice; 100 mg/kg/day po 22 days) of the same compound?
Answer: significantly inhibited the expression of TGFβ-1

Question: And the “fibronectin expression (liver)” value (CCl4-exposed mice; 100 mg/kg/day po 22 days)?
Answer: significantly inhibited the expression of fibronectin

Question: And the plasma triglycerides (CCl4-exposed mice; 100 mg/kg/day po 22 days)?
Answer: significantly reduced plasma triglycerides

Question: And the “α-SMA expression (liver)” value (CCl4-exposed mice; 100 mg/kg/day po 22 days)?
Answer: inhibited the expression of α-SMA compared to vehicle without reaching significance

Question: What about the “decrease of collagen levels (hepatic fibrosis)” value (CCl4-exposed mice; 100 mg/kg/day po 22 days, 100 mg/kg/day) of the same compound?
Answer: 89% and 90%

Question: What about the EC50 (mouse PPARγ) of the same compound?
Answer: 170 nM

Question: And the EC50 (mouse PPARα)?
Answer: 290 nM

Question: What about the EC50 (human PPARα) of the same compound?
Answer: 920 nM

Question: What about the “Col1a expression (kidney)” value (anti-GBM exposed mice; 30 mg/kg/day po 7 days) of the same compound?
Answer: reduced

Question: What about the “Col3a expression (kidney)” value (anti-GBM exposed mice; 30 mg/kg/day po 7 days) of the same compound?
Answer: reduced

Question: What about the “kidney MCP-1 levels” value (anti-GBM exposed mice; 30 mg/kg/day po 7 days) of the same compound?
Answer: reduced

Question: What about the kidney osteopontin levels (anti-GBM exposed mice; 30 mg/kg/day po 7 days) of the same compound?
Answer: reduced

Question: What about the serum urea levels (anti-GBM exposed mice; 30 mg/kg/day po 7 days) of the same compound?
Answer: reduced

Question: What about the urinary albumin levels (anti-GBM exposed mice; 30 mg/kg/day po 7 days) of the same compound?
Answer: reduced

Question: And the urinary volume (anti-GBM exposed mice; 30 mg/kg/day po 7 days)?
Answer: reduced urinary volume compared to vehicle without reaching significance

Question: What about the “Col1a expression (kidney)” value (anti-GBM exposed mice; 100 mg/kg/day po 7 days) of the same compound?
Answer: significantly inhibited Col1a expression

Question: What about the “Col3a expression (kidney)” value (anti-GBM exposed mice; 100 mg/kg/day po 7 days) of the same compound?
Answer: significantly inhibited Col3a expression

Question: And the “TGFβR-1 expression (kidney)” value (anti-GBM exposed mice; 100 mg/kg/day po 7 days)?
Answer: significantly inhibited TGFβ-R1 expression

Question: What about the “kidney MCP-1 levels” value (anti-GBM exposed mice; 100 mg/kg/day po 7 days) of the same compound?
Answer: significantly reduced MCP-1 levels

Question: And the kidney osteopontin levels (anti-GBM exposed mice; 100 mg/kg/day po 7 days)?
Answer: significantly reduced osteopontin levels

Question: And the “number of pathological glomeruli” value (anti-GBM exposed mice; 100 mg/kg/day po 7 days)?
Answer: significantly reduced the number of pathological glomeruli

Question: And the serum urea levels (anti-GBM exposed mice; 100 mg/kg/day po 7 days)?
Answer: significantly reduced urea levels

Question: And the urinary albumin levels (anti-GBM exposed mice; 100 mg/kg/day po 7 days)?
Answer: reduced albumin levels compared to vehicle without reaching significance

Question: And the urinary volume (anti-GBM exposed mice; 100 mg/kg/day po 7 days)?
Answer: reduced urinary volume compared to vehicle without reaching significance

Question: And the IC50 [1]?
Answer: 10900 nM

Question: And the IC50 [2]?
Answer: 11500 nM

Question: What about the EC50 (human PPARδ) of the same compound?
Answer: 530 nM

Question: And the EC50 (mouse PPARδ)?
Answer: 2000 nM

Source: patent publication US10052311B2, “PPAR compounds for use in the treatment of fibrotic diseases” (INVENTIVA, priority 2014, dated 2018)
